Laboratory results from ChEMBL document CHEMBL1201862, “PubChem BioAssay data set” (2004).
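Test compounds were applied to cells in 96-well plates for 48 hours at 5 doses. GI50 is the concentration that inhibits growth by half.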 Calls of active or inactive are those of the source. Cut-off read from the data, not from the text of the source: active = GI50 up to about 1.1 µM and inactive = higher.

Experiments:
Experiment in all cases: growth of human tumour cells (NCI), 48 h
MDA-MB-435 = tested on: MDA-MB-435
PC-3 = tested on: PC-3
MDA-N = tested on: MDA-N
DU-145 = tested on: DU-145
Hs-578T = tested on: Hs-578T
MDA-MB-231 = tested on: MDA-MB-231
T47D = tested on: T47D
BT-549 = tested on: BT-549

Measured: GI50

CCOC(=O)C1(CO)CSCCSC1
inactive: MDA-MB-435 > 100 µM | PC-3 > 100 µM | MDA-N > 100 µM | DU-145 > 100 µM | Hs-578T > 100 µM | MDA-MB-231 > 100 µM

C=CCOC1OC(CS(=O)(=O)O)C(OC(C)=O)C(OC(C)=O)C1OC(C)=O (stereo not drawn)
inactive: MDA-MB-435 > 100 µM | T47D > 100 µM | BT-549 > 100 µM | PC-3 > 100 µM | MDA-N > 100 µM | DU-145 > 100 µM | Hs-578T > 100 µM
